From US20240409556A1, “BENZOPIPERAZINE AND RELATED ANALOGS FOR INHIBITING YAP/TAZ-TEAD” (Springworks Therapeutics, Inc., priority 2023, published 2024)

test system: YAP/TAZ-TEAD transcription; assay: Reporter gene assay for measuring the inhibition of YAP/TAZ-TEAD transcription (TEAD-responsive element luciferase reporter in Hek293T cells); assay type: cell-based; settings: 24 hours incubation
Method: Example 56: Activity of Compounds of the Disclosure in a Reporter Gene Assay for Measuring the Inhibition of YAP/TAZ-TEAD Transcription
Hek293T cells were cultured in DMEM supplemented with 10% fetal bovine serum, Sodium pyruvate, Sodium bicarbonate, L-glutamine. The cells were harvested and transiently transfected with TEAD-responsive element luciferase reporter. Transfected cells were plated in 384-well plate containing pre-diluted compounds. After 24 hours incubation at 37° C./5% CO2, assay plates were cooled to room temperature and levelled to an equal volume per well, prior to the addition of 25 uL luciferase substrate SteadyLite (Perkin Elmer)/well. The plate was shaken for 10 min at 600 rpm, centrifuged for 1 min at 500 rpm and measured with an Envision reader (PerkinElmer). The amount of relative light units produced by the TEAD reporter was used to calculate the percentage of inhibition.
The percent of reporter inhibition was calculated in the presence of a positive control inhibitor (100% inhibition) versus a condition with the presence of the vehicle basal activity of the reporter (0% inhibition). The ability of a test compound to inhibit this activity was determined as: Percentage inhibition=[[…]((RLU determined in the presence of vehicle−RLU determined for sample with test compound present) divided by (RLU determined in the presence of vehicle−RLU determined for sample with positive control inhibitor))]*100.
The activities of example compounds tested are depicted in Table 3. The activity ranges A, B and C refer to IC50 values in the reporter gene assay as follows: “A”: IC50<1 μM; “B”: 1 μM≤IC50≤10 μM and “C”: IC50>10 μM; NT=not tested.

IC50 [µM] | SMILES
< 1 | CC(=O)NCC1CN(c2ccc(C(F)(F)F)cc2)c2cc(Cl)cnc2O1 (stereo not drawn) [compound 75, N-((7-chloro-1-(4-(trifluoromethyl)phenyl)-2,3-dihydro-1H-pyrido[2,3-b][1,4]oxazin-3-yl)methyl)acetamide]
1 to 10 | CC(=O)NCC1CN(c2ccc(C(F)(F)F)cc2)c2cccnc2O1 (single isomer, unassigned) [49-En2, (R)- or (S)-N-((1-(4-(trifluoromethyl)phenyl)-2,3-dihydro-1H-pyrido[2,3-b][1,4]oxazin-3-yl)methyl)acetamide]
< 1 | CC(=O)NCC1CN(c2ccc(C(F)(F)F)cc2)c2ccc(C3CC3)nc2O1 (single isomer, unassigned) [81-En2, (R)- or (S)-N-((6-cyclopropyl-1-(4-(trifluoromethyl)phenyl)-2,3-dihydro-1H-pyrido[2,3-b][1,4]oxazin-3-yl)methyl)acetamide]
< 1 | CC(C)C(=O)N1CCN2c3ncccc3N(c3ccc(C(F)(F)F)cc3)CC2C1 (single isomer, unassigned) [47-En2, (R)- or (S)-2-methyl-1-(5-(4-(trifluoromethyl)phenyl)-5,6,6a,7,9,10-hexahydro-8H-pyrazino[1,2-a]pyrido[3,2-e]pyrazin-8-yl)propan-1-one]
< 1 | CC(=O)NCC1CN(c2ccc(C(F)(F)F)cc2)c2ccccc2N1 (single isomer, unassigned) [34-En1, (R)- or (S)-N-((4-(4-(trifluoromethyl)phenyl)-1,2,3,4-tetrahydroquinoxalin-2-yl)methyl)acetamide]
< 1 | CNC(=O)N1CCN2c3ncccc3N(c3ccc(C(F)(F)F)cc3)CC2C1 (single isomer, unassigned) [52-En1, (R)- or (S)-N-methyl-5-(4-(trifluoromethyl)phenyl)-5,6,6a,7,9,10-hexahydro-8H-pyrazino[1,2-a]pyrido[3,2-e]pyrazine-8-carboxamide]
< 1 | CNS(=O)(=O)N1CCN2c3ccccc3N(c3ccc(C(F)(F)F)cc3)CC2C1 (single isomer, unassigned) [32-En1, (R)- or (S)-N-methyl-6-(4-(trifluoromethyl)phenyl)-1,2,4,4a,5,6-hexahydro-3H-pyrazino[1,2-a]quinoxaline-3-sulfonamide]
< 1 | COc1ccc2c(n1)OC(CNC(C)=O)CN2c1ccc(C(F)(F)F)cc1 (single isomer, unassigned) [73-En2, (R)- or (S)-N-((6-methoxy-1-(4-(trifluoromethyl)phenyl)-2,3-dihydro-1H-pyrido[2,3-b][1,4]oxazin-3-yl)methyl)acetamide]
< 1 | O=C(O)C1(F)CCN2c3ccccc3N(c3ccc(C(F)(F)F)cc3)CC2C1 [123-D4, (6aS,8S)- or (6aR,8S)- or (6aR,8R)- or (6aS,8R)-8-fluoro-5-(4-(trifluoromethyl)phenyl)-6,6a,7,8,9,10-hexahydro-5H-pyrido[1,2-a]quinoxaline-8-carboxylic acid]

same assay, conditions: Homo sapiens, HEK-293T, 24 h, 24 hours incubation

IC50 [µM] | SMILES
< 1 | C=CC(=O)N1CC2CN(c3ccc(C(F)(F)F)cc3)c3ccccc3N2CC1C(=O)O (stereo not drawn) [compound 88, (cis)- or (trans)-3-acryloyl-6-(4-(trifluoromethyl)phenyl)-2,3,4,4a,5,6-hexahydro-1H-pyrazino[1,2-a]quinoxaline-2-carboxylic acid]
< 1 | C[C@@H](O)C(=O)N[C@@H]1C[C@@H]2CN(c3ccc(C(F)(F)F)cc3)c3cccnc3N2C1 [109-En1, (R)-2-hydroxy-N-((6aR,8R)-5-(4-(trifluoromethyl)phenyl)-5,6,6a,7,8,9-hexahydropyrido[3,2-e]pyrrolo[1,2-a]pyrazin-8-yl)propanamide]
1 to 10 | O=C(O)CN1CCN2c3ccccc3N(c3ccc(C(F)(F)F)cc3)CC2C1 (stereo not drawn) [compound 31, 2-(6-(4-(trifluoromethyl)phenyl)-1,2,4,4a,5,6-hexahydro-3H-pyrazino[1,2-a]quinoxalin-3-yl)acetic acid]
< 1 | CC(=O)N[C@@H]1C[C@@H]2CN(c3ccc(C(F)(F)F)cc3)c3cc(C)cnc3N2C1 [compound 93, N-((6aR,8R)-3-methyl-5-(4-(trifluoromethyl)phenyl)-5,6,6a,7,8,9-hexahydropyrido[3,2-e]pyrrolo[1,2-a]pyrazin-8-yl)acetamide]
< 1 | O=C(c1cn[nH]c1)N1CCN(c2ccc(C(F)(F)F)cc2)c2ccccc21 [compound 74, (1H-pyrazol-4-yl)(4-(4-(trifluoromethyl)phenyl)-3,4-dihydroquinoxalin-1(2H)-yl)methanone]
< 1 | COC(=O)N1CCN2c3ccccc3N(c3ccc(C(F)(F)F)cc3)CC2C1 (stereo not drawn) [compound 20, methyl 6-(4-(trifluoromethyl)phenyl)-1,2,4,4a,5,6-hexahydro-3H-pyrazino[1,2-a]quinoxaline-3-carboxylate]
< 1 | CC(C)C(=O)N1CCN2c3ncccc3N(c3ccc(C(F)(F)F)cc3)CC2C1 (stereo not drawn) [compound 47, 2-methyl-1-(5-(4-(trifluoromethyl)phenyl)-5,6,6a,7,9,10-hexahydro-8H-pyrazino[1,2-a]pyrido[3,2-e]pyrazin-8-yl)propan-1-one]
< 1 | CC(=O)NCC1CN(c2ccc(C(F)(F)F)cc2)c2ccc(N(C)C)nc2O1 (stereo not drawn) [compound 87, N-((6-(dimethylamino)-1-(4-(trifluoromethyl)phenyl)-2,3-dihydro-1H-pyrido[2,3-b][1,4]oxazin-3-yl)methyl)acetamide]
< 1 | CC(=O)N[C@H]1C[C@@H]2CN(c3ccc(C(F)(F)F)cc3)c3cccnc3N2C1 [70-D2, N-((6aR,8S)-5-(4-(trifluoromethyl)phenyl)-5,6,6a,7,8,9-hexahydropyrido[3,2-e]pyrrolo[1,2-a]pyrazin-8-yl)acetamide]
1 to 10 | FC(F)(F)c1ccc(N2CCN(Cc3cccnc3)c3ccccc32)cc1 [compound 64, 1-(pyridin-3-ylmethyl)-4-(4-(trifluoromethyl)phenyl)-1,2,3,4-tetrahydroquinoxaline]
< 1 | Cn1cncc1CN1CCN(c2ccc(C(F)(F)F)cc2)c2ccccc21 [compound 60, 1-((1-methyl-1H-imidazol-5-yl)methyl)-4-(4-(trifluoromethyl)phenyl)-1,2,3,4-tetrahydroquinoxaline]
1 to 10 | C=CC(=O)NCC1CN(c2ccc(C(F)(F)F)cc2)c2ccccc2N1C(C)=O (stereo not drawn) [compound 18, N-((1-acetyl-4-(4-(trifluoromethyl)phenyl)-1,2,3,4-tetrahydroquinoxalin-2-yl)methyl)acrylamide]
< 1 | FC(F)(F)c1ccc(N2CCN(Cc3ncc[nH]3)c3ccccc32)cc1 [compound 62, 1-((1H-imidazol-2-yl)methyl)-4-(4-(trifluoromethyl)phenyl)-1,2,3,4-tetrahydroquinoxaline]
< 1 | O=C(O)C1CCN2c3ccccc3N(c3ccc(C(F)(F)F)cc3)CC2C1 (stereo not drawn) [65A, (cis)- or (trans)-5-(4-(trifluoromethyl)phenyl)-6,6a,7,8,9,10-hexahydro-5H-pyrido[1,2-a]quinoxaline-8-carboxylic acid]

SMILES | IC50 [µM]
C=CC(=O)N1CCN2C(C1)CN(c1ccc(C(F)(F)F)cc1)C1C2C1(Cl)Cl (stereo not drawn) [compound 43, 1-(1,1-dichloro-2-(4-(trifluoromethyl)phenyl)octahydrocyclopropa[e]pyrazino[1,2-a]pyrazin-5(1H)-yl)prop-2-en-1-one] | < 1
